PubChem BioAssay (NCI)
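Following 48 hours of exposure in 96-well plates, responses at five concentrations were used to interpolate endpoints linearly. GI50 is the concentration that inhibits growth by half. TGI marks complete inhibition of growth.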

How the values were obtained:
Assay in all cases: NCI-60 cell line screen, 48 h
COLO 205 colon = system: COLO 205 colon
HS 578T breast = system: HS 578T breast
NCI/ADR-RES ovarian = system: NCI/ADR-RES ovarian
MDA-MB-231 breast = system: MDA-MB-231 breast
SW-620 colon = system: SW-620 colon
K-562 leukemia = system: K-562 leukemia
PC-3 prostate = system: PC-3 prostate
A498 renal = system: A498 renal

SMILES | GI50 (COLO 205 colon) | TGI (COLO 205 colon) | GI50 (HS 578T breast) | TGI (HS 578T breast) | GI50 (NCI/ADR-RES ovarian) | TGI (NCI/ADR-RES ovarian) | GI50 (MDA-MB-231 breast) | TGI (MDA-MB-231 breast) | GI50 (SW-620 colon) | TGI (SW-620 colon) | GI50 (K-562 leukemia) | TGI (K-562 leukemia) | GI50 (PC-3 prostate) | TGI (PC-3 prostate) | GI50 (A498 renal) | TGI (A498 renal)
C[As](C)SCC(COC(=O)c1ccccc1)OC(=O)c1ccccc1 (centres undefined) | 0.0514 µM | 1.88 µM | 0.627 µM | 4.45 µM | 0.152 µM | 0.367 µM | 0.463 µM | 2.97 µM | 31.4 nM | 1.66 µM | < 20.5 nM | 1.22 µM | 358 nM | 15.7 µM | 135 nM | 1.15 µM
CN(C)c1ccc(/C=C/C(=O)c2ccc(Nc3nc(Nc4ccc(F)cc4)nc(Nc4ccc(Cl)cc4)n3)cc2)cc1 | 4.26 µM | 18.7 µM | 4.12 µM | 49.6 µM | 3.56 µM | 33.4 µM | 9.56 µM | 73 µM | 6790 nM | 33.6 µM | 2770 nM | > 100 µM | 2080 nM | 5.45 µM | 2970 nM | 18.1 µM
COc1ccc(N2CCN(CC(=O)N3CCN(c4nnc(-c5ccc(Cl)cc5)c(-c5ccc(Cl)cc5)n4)CC3)CC2)cc1 | 6.6 µM | > 100 µM | > 100 µM | > 100 µM | > 100 µM | > 100 µM | 35.4 µM | > 100 µM | 46300 nM | > 100 µM | 5800 nM | > 100 µM | 6560 nM | > 100 µM | 13400 nM | > 100 µM
CNCc1ccc(C)c(NC(=O)c2ccc(Nc3nc(-c4ccccc4)c4ccccc4n3)cc2)c1 | 1.84 µM | 3.57 µM | 1.76 µM | 4.17 µM | 2.25 µM | 5.25 µM | 1.74 µM | 3.43 µM | 1840 nM | 3.57 µM | 1910 nM | 4.54 µM | 1920 nM | 4.15 µM | 1530 nM | 3.04 µM
N#Cc1c(-c2ccc(Cl)cc2)n([O-])c2ccccc2[n+]1=O | 23 µM | 54.4 µM | 24.6 µM | 53.8 µM | 4.05 µM | 16.1 µM | 6.95 µM | 24.2 µM | 12700 nM | 34.1 µM | 2000 nM | 4.01 µM | 3260 nM | 13 µM | – | –
NC(=O)NOCC1NC(=O)NC1=O (centres undefined) | – | > 100 µM | – | > 100 µM | – | > 100 µM | – | > 100 µM | – | > 100 µM | – | > 100 µM | – | > 100 µM | – | > 100 µM
COc1ccc(-c2nccn2-c2cc(OC)c(OC)c(OC)c2)cc1 | 0.598 µM | 7.29 µM | 8.9 µM | > 77.6 µM | 1.17 µM | 22.2 µM | 7.62 µM | 90.3 µM | 1340 nM | > 100 µM | 1500 nM | > 100 µM | 1810 nM | > 100 µM | 909 nM | –
CCOC(=O)c1ccccc1NC(c1ccccc1)c1ccc2cccnc2c1O (centres undefined) | 3.33 µM | 24.1 µM | 7.53 µM | > 100 µM | 2.78 µM | 21.4 µM | 5.59 µM | 72.7 µM | 3890 nM | > 100 µM | 3340 nM | > 100 µM | 5130 nM | > 100 µM | 1150 nM | 8.05 µM
COc1ccc(/C=C2\CN(Cc3cn(CCCNc4ccnc5cc(Cl)ccc45)nn3)C/C(=C\c3ccc(OC)cc3)C2=O)cc1 | 12.2 µM | 26.8 µM | 6.27 µM | 29.7 µM | 3.15 µM | 14.5 µM | 5.39 µM | 28.4 µM | 1690 nM | 3.57 µM | 2650 nM | 11.7 µM | 2900 nM | 17 µM | 2200 nM | 32.8 µM
COc1ccc(/C(C)=C(\c2ccc(Cl)cc2)c2ccc(OCCN3CCCCC3)cc2)cc1F | 1.75 µM | 5.25 µM | 2.83 µM | 6.78 µM | 3.53 µM | 9.67 µM | 3.04 µM | 5.71 µM | 2340 nM | 5.35 µM | 698 nM | 5.93 µM | 2670 nM | 7.47 µM | – | –
COc1ccc(C(=O)CC(Cl)=C(Cl)Cl)cc1 | 25.6 µM | 61.5 µM | > 100 µM | > 100 µM | 25.2 µM | 59.4 µM | 33.1 µM | > 100 µM | 33500 nM | > 100 µM | – | – | 26700 nM | > 100 µM | > 100000 nM | > 100 µM
Cc1nc2cc(NC(=O)CN3CCN(CCN4C(=O)c5cccc6cccc(c56)C4=O)CC3)ccc2s1 | 4.46 µM | 89.6 µM | 6.53 µM | 52.5 µM | 4.05 µM | 29.5 µM | 11.7 µM | > 100 µM | 2600 nM | 24.3 µM | – | – | 4500 nM | > 100 µM | 5630 nM | 38.3 µM
Cc1cc(N2CCOCC2)nc(N(CCNc2ccnc3cc(Cl)ccc23)Cc2cccs2)n1 | 1.62 µM | 3.25 µM | 2.24 µM | 5.45 µM | 3.45 µM | > 100 µM | 1.97 µM | 3.64 µM | 1920 nM | 4.18 µM | 1670 nM | 3.98 µM | 1800 nM | 4.84 µM | – | –
Nc1cc2[nH]c(=O)c3cc(Cl)ccc3c2cc1Cl | – | > 100 µM | – | > 100 µM | – | 86.1 µM | – | 68.6 µM | – | > 100 µM | – | > 100 µM | – | – | – | –
Oc1ccc(-c2nc(-c3ccc4oc5ccc(-c6[nH]c(-c7ccc(O)cc7)nc6-c6ccccc6)cc5c4c3)c(-c3ccccc3)[nH]2)cc1 | 3.09 µM | 8.18 µM | 3.55 µM | 68.7 µM | 16 µM | > 100 µM | 2.57 µM | 7.46 µM | 2950 nM | 10.7 µM | – | – | 2930 nM | 13.5 µM | 12200 nM | 26 µM
CC(C)(O)C1CC(=O)C(C)(C2C(O)CC3(C)C4CC=C5C(CCC(O)C5(C)C)C4(C)C(=O)CC23C)O1 (centres undefined) | – | > 100 µM | – | > 100 µM | – | – | – | > 100 µM | – | > 100 µM | – | > 100 µM | – | > 100 µM | – | > 100 µM
O=C1c2cccc3cc4ccccc4c(c23)C(=O)N1CCCNCCNCCCN1C(=O)c2cccc3cc4ccccc4c(c23)C1=O | – | – | – | 1.98 µM | – | – | – | 1.66 µM | – | – | – | 0.337 µM | – | 1.43 µM | – | 1.91 µM
Cc1cccc(NC(=O)c2sc3nc4c(cc3c2N)CCC4)c1C | 0.361 µM | 1.97 µM | 0.486 µM | 16 µM | 0.279 µM | 10.3 µM | 0.594 µM | 29.3 µM | 359 nM | > 100 µM | – | – | 369 nM | 15.7 µM | 262 nM | 0.938 µM
Oc1c(Br)cc(Br)c2cccnc12 | 3.79 µM | 25 µM | 5.73 µM | > 100 µM | 2.82 µM | > 100 µM | 4.43 µM | 28.9 µM | 4580 nM | 72.8 µM | – | – | 4500 nM | > 100 µM | 2030 nM | 11.5 µM
Cc1ccc(S(=O)(=O)NC(CCCCN)C(=O)CCl)cc1 (centres undefined) | 41.1 µM | > 100 µM | 40.9 µM | > 100 µM | 81.3 µM | > 100 µM | > 100 µM | > 100 µM | 43100 nM | > 100 µM | 38700 nM | > 100 µM | 52600 nM | > 100 µM | – | –
C=C1C(=O)O[C@H]2[C@H]1CC/C(Cn1cc(CNC(=O)c3cc4ccccc4[nH]3)nn1)=C\CC[C@@]1(C)O[C@@H]21 | 2.13 µM | 4.48 µM | 19 µM | 55.4 µM | 69.3 µM | > 100 µM | 1.97 µM | 3.78 µM | 1970 nM | 3.94 µM | – | – | 1880 nM | 4.79 µM | 18900 nM | 36 µM
COc1ccc(C2CC(c3ccc(OC)c(OC)c3)=NN2C(=O)c2cc(OC)c(OC)c(OC)c2)cc1 (centres undefined) | 2.81 µM | > 28 µM | 2.07 µM | > 100 µM | 0.95 µM | 6.02 µM | 3.09 µM | > 100 µM | 3700 nM | > 100 µM | 1200 nM | > 100 µM | 3570 nM | > 100 µM | – | –
CN(C)CCCn1c2c(c3ccc([N+](=O)[O-])cc3c1=O)C(=O)c1ccccc1-2 | 23.9 µM | 87.5 µM | 41.3 µM | > 100 µM | 7.22 µM | 34.5 µM | 15.9 µM | 38.1 µM | 5700 nM | > 100 µM | 6050 nM | > 100 µM | 6060 nM | > 100 µM | – | –
CC1SC(c2cccc(Oc3ccccc3)c2)N(CCc2cccs2)C1=O (centres undefined) | 1.5 µM | 3.05 µM | – | – | 0.708 µM | 3.01 µM | 1.09 µM | 2.58 µM | 1400 nM | 3 µM | 573 nM | 7.79 µM | 595 nM | 3.37 µM | 1210 nM | 2.46 µM
